Reference: the supplement of paper PMC10307832

Tests used:
BI-D1870 + Dasatinib = compound: CC(C)CCN1c2nc(Nc3cc(F)c(O)c(F)c3)ncc2N(C)C(=O)C1C [BI-D1870] + Cc1nc(Nc2ncc(C(=O)Nc3c(C)cccc3Cl)s2)cc(N2CCN(CCO)CC2)n1 [Dasatinib] (partner 0.075 µM); experiment: relative viability (nuclei count vs DMSO), 5 days (fraction); higher = more cells survive
Method in brief: (§1)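 After 5 days of treatment, lung cancer cells in 1536-well plates were fixed and stained in a single step (final 0.05% Triton X-100, 1% formaldehyde, 1 ug/ml Hoechst) and their nuclei counted on 4× images. Treatment had been applied by pin tool the day after seeding as one drug alone or as a fixed anchor-drug dose with five library-drug doses (not always all listed) in √10 steps. Relative viability is the nuclei count of treated wells divided by that of vehicle wells, and values are medians of duplicate plates.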

BI-D1870 + Luminespib = compound: CC(C)CCN1c2nc(Nc3cc(F)c(O)c(F)c3)ncc2N(C)C(=O)C1C [BI-D1870] + CCNC(=O)c1noc(-c2cc(C(C)C)c(O)cc2O)c1-c1ccc(CN2CCOCC2)cc1 [Luminespib] (partner 0.01 µM); experiment: as above
Method in brief: as §1

For LCLC-97TM1, the relative viability (BI-D1870 + Dasatinib; first compound 0.04 µM) was 0.932, the relative viability (BI-D1870 + Dasatinib; first compound 0.1265 µM) was 0.833 and the relative viability (BI-D1870 + Dasatinib; first compound 0.4 µM) was 0.947. It also gave a relative viability (BI-D1870 + Dasatinib; first compound 1.265 µM) of 0.899, a relative viability (BI-D1870 + Dasatinib; first compound 4 µM) of 0.709 and a relative viability (BI-D1870 + Luminespib; first compound 0.04 µM) of 0.892. It also gave a relative viability (BI-D1870 + Luminespib; first compound 0.1265 µM) of 0.775, a relative viability (BI-D1870 + Luminespib; first compound 0.4 µM) of 0.769 and a relative viability (BI-D1870 + Luminespib; first compound 1.265 µM) of 0.918. The relative viability (BI-D1870 + Luminespib; first compound 4 µM) was 0.846.
For NCI-H727, the relative viability (BI-D1870 + Dasatinib; first compound 0.04 µM) was 0.432, the relative viability (BI-D1870 + Dasatinib; first compound 0.1265 µM) was 0.34 and the relative viability (BI-D1870 + Dasatinib; first compound 0.4 µM) was 0.27. The relative viability (BI-D1870 + Dasatinib; first compound 1.265 µM) was 0.417, the relative viability (BI-D1870 + Dasatinib; first compound 4 µM) was 0.312 and the relative viability (BI-D1870 + Luminespib; first compound 0.04 µM) was 0.235. The relative viability (BI-D1870 + Luminespib; first compound 0.1265 µM) was 0.354, the relative viability (BI-D1870 + Luminespib; first compound 0.4 µM) was 0.302 and the relative viability (BI-D1870 + Luminespib; first compound 1.265 µM) was 0.332. It also gave a relative viability (BI-D1870 + Luminespib; first compound 4 µM) of 0.314.
Cell Line NCI-H1355 has a relative viability (BI-D1870 + Dasatinib; first compound 0.04 µM) of 0.886, a relative viability (BI-D1870 + Dasatinib; first compound 0.1265 µM) of 0.726 and a relative viability (BI-D1870 + Dasatinib; first compound 0.4 µM) of 0.767. For the same cell line, the relative viability (BI-D1870 + Dasatinib; first compound 1.265 µM) was 0.838, the relative viability (BI-D1870 + Dasatinib; first compound 4 µM) was 0.674 and the relative viability (BI-D1870 + Luminespib; first compound 0.04 µM) was 0.802. The relative viability (BI-D1870 + Luminespib; first compound 0.1265 µM) was 0.675, the relative viability (BI-D1870 + Luminespib; first compound 0.4 µM) was 0.649 and the relative viability (BI-D1870 + Luminespib; first compound 1.265 µM) was 0.737. The relative viability (BI-D1870 + Luminespib; first compound 4 µM) was 0.573.
For HOP-62, the relative viability (BI-D1870 + Dasatinib; first compound 0.04 µM) was 0.707, the relative viability (BI-D1870 + Dasatinib; first compound 0.1265 µM) was 0.675 and the relative viability (BI-D1870 + Dasatinib; first compound 0.4 µM) was 0.603. The relative viability (BI-D1870 + Dasatinib; first compound 1.265 µM) was 0.66, the relative viability (BI-D1870 + Dasatinib; first compound 4 µM) was 0.524 and the relative viability (BI-D1870 + Luminespib; first compound 0.04 µM) was 0.989. It also gave a relative viability (BI-D1870 + Luminespib; first compound 0.1265 µM) of 0.929, a relative viability (BI-D1870 + Luminespib; first compound 0.4 µM) of 0.88 and a relative viability (BI-D1870 + Luminespib; first compound 1.265 µM) of 0.95. It also gave a relative viability (BI-D1870 + Luminespib; first compound 4 µM) of 0.866.
In the case of NCI-H2085, the relative viability (BI-D1870 + Dasatinib; first compound 0.04 µM) is reported as 0.246, the relative viability (BI-D1870 + Dasatinib; first compound 0.1265 µM) is reported as 0.246 and the relative viability (BI-D1870 + Dasatinib; first compound 0.4 µM) is reported as 0.222. The relative viability (BI-D1870 + Dasatinib; first compound 1.265 µM) was 0.239, the relative viability (BI-D1870 + Dasatinib; first compound 4 µM) was 0.281 and the relative viability (BI-D1870 + Luminespib; first compound 0.04 µM) was 0.483. The relative viability (BI-D1870 + Luminespib; first compound 0.1265 µM) was 0.452, the relative viability (BI-D1870 + Luminespib; first compound 0.4 µM) was 0.503 and the relative viability (BI-D1870 + Luminespib; first compound 1.265 µM) was 0.407. The relative viability (BI-D1870 + Luminespib; first compound 4 µM) was 0.364.
With SW 900 the relative viability (BI-D1870 + Dasatinib; first compound 0.04 µM) was 0.66, the relative viability (BI-D1870 + Dasatinib; first compound 0.1265 µM) was 0.456 and the relative viability (BI-D1870 + Dasatinib; first compound 0.4 µM) was 0.662. It also gave a relative viability (BI-D1870 + Dasatinib; first compound 1.265 µM) of 0.499, a relative viability (BI-D1870 + Dasatinib; first compound 4 µM) of 0.338 and a relative viability (BI-D1870 + Luminespib; first compound 0.04 µM) of 0.193. It also gave a relative viability (BI-D1870 + Luminespib; first compound 0.1265 µM) of 0.192, a relative viability (BI-D1870 + Luminespib; first compound 0.4 µM) of 0.18 and a relative viability (BI-D1870 + Luminespib; first compound 1.265 µM) of 0.175. For the same cell line, the relative viability (BI-D1870 + Luminespib; first compound 4 µM) was 0.158.
